Experimental data as given in article PMC10897196, “Structure–activity characteristics of phenylalanine analogs selectively transported by L-type amino acid transporter 1 (LAT1)” (Scientific Reports, 2024).
Several values for one entry are separate records, joined by “and”; a condition that tells them apart may be missing. Identical values can stand only once.

Columns and labels:
[1] = target: T1, human LAT2 (Homo sapiens, UniProt Q9UHI5); experiment: Inhibition of L-[14C]alanine uptake in HEK293-hLAT2 cells; type: cell-based; details: for Inhibition of LAT2-mediated L-[14C]alanine uptake (in words, rank order): 1 μM L-[14C]alanine, 1 min, compounds at 10, 30, 100 μM; for Ki: L-[14C]alanine uptake, HEK293-hLAT2, mean ± S.E.M., n = 3–4, read-out: Ki (μM) LAT2
T1 construct: expressed in transfected cells
T1 sequence (Q9UHI5 1-535): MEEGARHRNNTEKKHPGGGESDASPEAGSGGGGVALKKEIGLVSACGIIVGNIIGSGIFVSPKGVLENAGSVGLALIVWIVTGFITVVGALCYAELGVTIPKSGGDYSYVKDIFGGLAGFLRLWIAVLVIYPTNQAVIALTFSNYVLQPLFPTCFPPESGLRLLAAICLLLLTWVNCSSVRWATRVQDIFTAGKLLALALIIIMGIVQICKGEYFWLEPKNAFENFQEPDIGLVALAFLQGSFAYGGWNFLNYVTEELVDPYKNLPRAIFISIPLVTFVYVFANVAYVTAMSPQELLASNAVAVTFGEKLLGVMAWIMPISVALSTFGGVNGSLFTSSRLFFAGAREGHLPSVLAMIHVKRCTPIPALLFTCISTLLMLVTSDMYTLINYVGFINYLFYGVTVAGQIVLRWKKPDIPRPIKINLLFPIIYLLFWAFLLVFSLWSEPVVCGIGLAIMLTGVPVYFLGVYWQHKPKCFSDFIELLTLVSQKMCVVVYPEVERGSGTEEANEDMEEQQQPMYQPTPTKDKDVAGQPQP
T1 sequence (P08195 1-529 partner): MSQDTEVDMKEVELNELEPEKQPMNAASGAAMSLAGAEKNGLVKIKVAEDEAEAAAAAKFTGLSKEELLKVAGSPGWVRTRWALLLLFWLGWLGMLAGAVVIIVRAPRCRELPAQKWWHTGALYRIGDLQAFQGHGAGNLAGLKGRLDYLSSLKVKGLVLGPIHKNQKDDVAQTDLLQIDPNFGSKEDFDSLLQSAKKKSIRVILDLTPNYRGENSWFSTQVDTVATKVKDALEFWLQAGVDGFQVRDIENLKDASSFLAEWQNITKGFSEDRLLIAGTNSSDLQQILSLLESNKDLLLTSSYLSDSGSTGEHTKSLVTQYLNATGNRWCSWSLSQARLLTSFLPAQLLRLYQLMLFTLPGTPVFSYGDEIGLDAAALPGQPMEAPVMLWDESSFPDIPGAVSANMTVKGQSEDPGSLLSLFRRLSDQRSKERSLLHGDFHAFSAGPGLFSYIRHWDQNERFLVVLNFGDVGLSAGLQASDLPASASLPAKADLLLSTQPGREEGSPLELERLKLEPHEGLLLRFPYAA
Text: (§1) In this study, we used the HEK293 cells stably expressing human LAT1 or human LAT2, which form a heterodimeric complex with endogenous 4F2hc (CD98hc), required for plasma membrane localization. We first explored the impact of halogen group positioning in the benzene ring of Phe (Fig. 1) on its interaction with LAT1 and LAT2. […] We conducted inhibition experiments to measure the uptake of L-[^14C]leucine by LAT1 and L-[^14C]alanine by LAT2 in the presence or absence of Phe derivatives with an iodo group at position 2, 3, or 4 in the benzene ring.
(§2) The inhibition experiments were performed as described previously. HEK293-hLAT1 (1.5 × 10^5 cells/well) or HEK293-hLAT2 (2 × 10^5 cells/well) cells were plated onto poly-D-lysine-coated 24-well plates (Corning, New York, USA). Following a 2-day culture period, the uptake of 1 μM L-[^14C]leucine or L-[^14C]alanine was measured for 1 min in the absence or presence of non-radiolabeled test compounds at concentrations of 10, 30, and 100 μM. Radioactivity was quantified using a β-scintillation counter (LSC-3100; Aloka, Tokyo, Japan), and protein concentrations were determined with a Micro BCA Protein Assay Kit (Thermo Fisher Scientific, Rockford, IL). To calculate Ki values, the concentration-dependent uptake of L-[^14C]leucine or L-[^14C]alanine was analyzed in the presence and absence of test compounds[49]. The data were plotted against substrate concentration and fitted to Michaelis–Menten kinetics. Ki values were derived using nonlinear regression analysis with the enzyme kinetics inhibition module in GraphPad Prism software (Version 10.0.2; GraphPad Software Inc., San Diego, CA, USA).

[2] = target: T2, human LAT1 (Homo sapiens, UniProt Q01650); experiment: Inhibition of L-[14C]leucine uptake in HEK293-hLAT1 cells; type: cell-based; details: for Inhibition of LAT1-mediated L-[14C]leucine uptake (in words, rank order): 1 μM L-[14C]leucine, 1 min, compounds at 10, 30, 100 μM; for Ki: L-[14C]leucine uptake, HEK293-hLAT1, mean ± S.E.M., n = 3–4, read-out: Ki (μM) LAT1; for Ki ratio (LAT2/LAT1): LAT1 selectivity, LAT2 Ki over LAT1 Ki
T2 construct: expressed in transfected cells
Text: as §1, §2

[3] = target: T2, human LAT1; experiment: Efflux of pre-loaded L-[14C]leucine from HEK293-hLAT1 cells induced by extracellular compounds; type: cell-based; details: for Km / Vmax of efflux (% radioactivity/min): LAT1, L-[14C]leucine efflux, mean ± S.E.M., n = 3; for Km / Vmax of efflux (% radioactivity/min) / LAT1-mediated L-[14C]leucine efflux induced (in words): 1 min; for LAT1-mediated L-[14C]leucine efflux induced (in words): compounds at 10, 30, 100 μM
Method: (§3) We evaluated the efflux of pre-loaded L-[^14C]leucine from LAT1 and pre-loaded L-[^14C]alanine from LAT2 induced by extracellularly applied compounds.
(§4) Efflux experiments were performed as described previously. Cells cultured 48 h were pre-loaded with 5 μM L-[^14C]leucine or L-[^14C]alanine for 10 min at 37 °C. The cells were then washed, and the efflux was induced by incubating cells for 1 min in either the absence or presence of non-radiolabeled test compounds at indicated concentrations. The efflux time of 1 min fell within the linear range of time-dependent substrate efflux mediated by LAT1 and LAT2 (Supplementary Fig. S2). Following incubation, the medium was collected and radioactivity was measured in both the medium and the cells. Efflux was quantified as the percentage of radioactivity released into the medium, calculated using the formula: radioactivity of medium/(radioactivity of medium + radioactivity of cells) × 100%.
(§5) The kinetic parameters for the efflux of L-[^14C]leucine or L-[^14C]alanine induced by various concentrations of extracellularly-applied test compounds were analyzed. The baseline efflux values—those obtained in the absence of test compounds—were subtracted from the values measured in the presence of the compounds. The resultant data were fitted to Michaelis–Menten kinetics to determine the Km and Vmax by nonlinear regression analysis using “enzyme kinetics-velocity as a function of substrate” module within GraphPad Prism software.

[4] = target: T1, human LAT2; experiment: Efflux of pre-loaded L-[14C]alanine from HEK293-hLAT2 cells induced by extracellular compounds; type: cell-based; details: for Vmax of efflux (% radioactivity/min): LAT2, L-[14C]alanine efflux, mean ± S.E.M., n = 3; for Vmax of efflux (% radioactivity/min) / LAT2-mediated L-[14C]alanine efflux induced (in words): 1 min; for LAT2-mediated L-[14C]alanine efflux induced (in words): compounds at 10, 30, 100 μM
Method: as §3, §4, §5

[5] = parameters: method as in PMID 11901210; details: correlated with LAT1 Ki; cited from earlier work

T2 sequence (Q01650 whole entry, one chain of several): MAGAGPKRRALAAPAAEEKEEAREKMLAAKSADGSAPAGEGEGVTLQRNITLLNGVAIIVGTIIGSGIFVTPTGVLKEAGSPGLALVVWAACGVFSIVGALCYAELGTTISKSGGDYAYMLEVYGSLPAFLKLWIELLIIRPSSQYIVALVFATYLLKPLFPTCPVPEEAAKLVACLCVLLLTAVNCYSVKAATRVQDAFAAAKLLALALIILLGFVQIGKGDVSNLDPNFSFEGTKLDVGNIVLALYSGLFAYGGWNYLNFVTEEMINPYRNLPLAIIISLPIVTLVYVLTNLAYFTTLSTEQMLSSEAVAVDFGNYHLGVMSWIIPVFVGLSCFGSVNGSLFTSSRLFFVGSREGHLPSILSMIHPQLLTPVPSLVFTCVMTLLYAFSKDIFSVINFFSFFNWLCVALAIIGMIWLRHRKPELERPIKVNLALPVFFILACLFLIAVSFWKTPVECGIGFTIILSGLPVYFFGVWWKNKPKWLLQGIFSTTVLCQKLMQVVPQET

Structure (SMILES): N[C@@H](Cc1cccc(F)c1)C(=O)O [3-F-Phe]
- Inhibition of LAT2-mediated L-[14C]alanine uptake (in words, rank order) [1]: Phe < 3-F-Phe
- Inhibition of LAT1-mediated L-[14C]leucine uptake (in words, rank order) [2]: Phe < 3-F-Phe

Structure (SMILES): N[C@@H](Cc1ccccc1)C(=O)O [Phe, phenylalanine]
- Ki [1]: 110 ± 20 µM
- Inhibition of LAT1-mediated L-[14C]leucine uptake (in words, rank order) [2]: inhibit
- Ki [2]: 43.5 ± 6.28 µM
- Ki ratio (LAT2/LAT1) [2]: 2.53
- Km [3]: 8.92 ± 1.08 µM
- Vmax of efflux (% radioactivity/min) [3]: 13.32 ± 0.31 % radioactivity/min
- Ratio to Vmax of Phe ([3]; LAT1 efflux): (1.00)
- LAT1-mediated L-[14C]leucine efflux induced (in words) [3]: induced a notable efflux
- Vmax of efflux (% radioactivity/min) [4]: 39.60 ± 0.74 % radioactivity/min
- Ratio to Vmax of Phe ([4]; LAT2 efflux): (1.00)

Structure (SMILES): C[C@](N)(Cc1ccc(O)c(O)c1)C(=O)O [α-methyl-DOPA]
- Carbonyl oxygen charge [5]: −0.5558

Structure (SMILES): N[C@@H](Cc1ccccc1I)C(=O)O [2-I-Phe, 2-iodo-L-phenylalanine]
- Inhibition of LAT2-mediated L-[14C]alanine uptake (in words, rank order) [1]: 2-I-Phe = Phe
- Ki [1]: 87.6 ± 11.9 µM
- Inhibition of LAT1-mediated L-[14C]leucine uptake (in words, rank order) [2]: markedly inhibited and 2-Br-Phe < 2-I-Phe and inhibit
- Ki [2]: 9.56 ± 1.67 µM
- Ki ratio (LAT2/LAT1) [2]: 9.16
- Km [3]: 2.79 ± 0.76 µM
- Vmax of efflux (% radioactivity/min) [3]: 7.62 ± 0.30 % radioactivity/min
- LAT1-mediated L-[14C]leucine efflux induced (in words) [3]: transported by LAT1 as substrates
- Vmax of efflux (% radioactivity/min) [4]: 39.65 ± 0.44 % radioactivity/min
- LAT2-mediated L-[14C]alanine efflux induced (in words) [4]: comparable to that of Phe

Structure (SMILES): N[C@@H](Cc1cccc(I)c1)C(=O)O [3-I-Phe]
- Inhibition of LAT2-mediated L-[14C]alanine uptake (in words, rank order) [1]: 4-I-Phe < 3-I-Phe and 3-Br-Phe < 3-I-Phe
- Inhibition of LAT1-mediated L-[14C]leucine uptake (in words, rank order) [2]: markedly inhibited and 3-Br-Phe < 3-I-Phe

Structure (SMILES): C[C@](N)(Cc1ccc(O)cc1)C(=O)O [α-methyl-Tyr]
- Carbonyl oxygen charge [5]: −0.5579

Structure (SMILES): N[C@@H](Cc1ccccc1Br)C(=O)O [2-Br-Phe]
- Inhibition of LAT1-mediated L-[14C]leucine uptake (in words, rank order) [2]: 2-Cl-Phe < 2-Br-Phe

Structure (SMILES): N[C@@H](Cc1ccccc1Cl)C(=O)O [2-Cl-Phe]
- Inhibition of LAT1-mediated L-[14C]leucine uptake (in words, rank order) [2]: Phe < 2-Cl-Phe

Structure (SMILES): N[C@H](C(=O)O)c1ccccc1 [Phg, L-phenylglycine]
- Inhibition of LAT2-mediated L-[14C]alanine uptake (in words, rank order) [1]: minimal inhibition
- Ki [1]: 242 ± 20.8 µM
- Inhibition of LAT1-mediated L-[14C]leucine uptake (in words, rank order) [2]: inhibit
- Ki [2]: 96.8 ± 13.2 µM
- Ki ratio (LAT2/LAT1) [2]: 2.50

Structure (SMILES): N[C@@H](Cc1cccc(Br)c1)C(=O)O [3-Br-Phe, 3-Bromo-L-phenylalanine]
- Inhibition of LAT2-mediated L-[14C]alanine uptake (in words, rank order) [1]: 3-Cl-Phe < 3-Br-Phe
- Inhibition of LAT1-mediated L-[14C]leucine uptake (in words, rank order) [2]: 3-Cl-Phe < 3-Br-Phe

Structure (SMILES): N[C@@H](Cc1ccc(O)cc1)C(=O)O [Tyr]
- Carbonyl oxygen charge [5]: −0.5635

Structure (SMILES): N[C@@H](Cc1cccc(Cl)c1)C(=O)O [3-Cl-Phe]
- Inhibition of LAT2-mediated L-[14C]alanine uptake (in words, rank order) [1]: 3-F-Phe < 3-Cl-Phe
- Inhibition of LAT1-mediated L-[14C]leucine uptake (in words, rank order) [2]: 3-F-Phe < 3-Cl-Phe

Structure (SMILES): C[C@](N)(Cc1ccccc1)C(=O)O [α-methyl-Phe, α-Methyl-L-phenylalanine, reference compound]
- Inhibition of LAT2-mediated L-[14C]alanine uptake (in words, rank order) [1]: minimal inhibition
- Ki [1]: 1680 ± 272 µM
- Inhibition of LAT1-mediated L-[14C]leucine uptake (in words, rank order) [2]: inhibit
- Ki [2]: 157 ± 19.5 µM
- Ki ratio (LAT2/LAT1) [2]: 10.74
- Km [3]: 67.9 ± 7.39 µM
- Vmax of efflux (% radioactivity/min) [3]: 15.45 ± 0.45 % radioactivity/min
- LAT1-mediated L-[14C]leucine efflux induced (in words) [3]: transported by LAT1 as substrates
- Vmax of efflux (% radioactivity/min) [4]: 27.28 ± 0.70 % radioactivity/min
- LAT2-mediated L-[14C]alanine efflux induced (in words) [4]: not efficiently transported by LAT2

Structure (SMILES): N[C@@H](Cc1ccccc1F)C(=O)O [2-F-Phe]
- Inhibition of LAT1-mediated L-[14C]leucine uptake (in words, rank order) [2]: 2-F-Phe = Phe

Structure (SMILES): N[C@@H](Cc1ccc(I)cc1)C(=O)O [4-I-Phe]
- Inhibition of LAT2-mediated L-[14C]alanine uptake (in words, rank order) [1]: Phe < 4-I-Phe
- Inhibition of LAT1-mediated L-[14C]leucine uptake (in words, rank order) [2]: comparable to that of Phe

Structure (SMILES): N[C@@H](Cc1ccc(O)c(O)c1)C(=O)O [L-DOPA]
- Carbonyl oxygen charge [5]: −0.5633
